# Source: patent publication US20230118688A1, “1H-PYRAZOLO[4,3-d]PYRIMIDINE COMPOUNDS AS TOLL-LIKE RECEPTOR 7 (TLR7) AGONISTS” (BRISTOL-MYERS SQUIBB COMPANY, priority 2020, published 2023)
# Experiments:
# human TLR7 = target: T1, human TLR7 (Homo sapiens, UniProt Q9NYK1); experiment: Human TLR7 agonist activity reporter assay (HEK-Blue TLR7 cells, SEAP reporter); assay type: cell-based; conditions: 18 h treatment, average where assay repeated, Table A1, read-out: hTLR7 Agonism EC50
# T1 construct: host or cells: HEK-Blue TLR7 cells (engineered human embryonic kidney cells)
# T1 sequence (Q9NYK1 27-1049): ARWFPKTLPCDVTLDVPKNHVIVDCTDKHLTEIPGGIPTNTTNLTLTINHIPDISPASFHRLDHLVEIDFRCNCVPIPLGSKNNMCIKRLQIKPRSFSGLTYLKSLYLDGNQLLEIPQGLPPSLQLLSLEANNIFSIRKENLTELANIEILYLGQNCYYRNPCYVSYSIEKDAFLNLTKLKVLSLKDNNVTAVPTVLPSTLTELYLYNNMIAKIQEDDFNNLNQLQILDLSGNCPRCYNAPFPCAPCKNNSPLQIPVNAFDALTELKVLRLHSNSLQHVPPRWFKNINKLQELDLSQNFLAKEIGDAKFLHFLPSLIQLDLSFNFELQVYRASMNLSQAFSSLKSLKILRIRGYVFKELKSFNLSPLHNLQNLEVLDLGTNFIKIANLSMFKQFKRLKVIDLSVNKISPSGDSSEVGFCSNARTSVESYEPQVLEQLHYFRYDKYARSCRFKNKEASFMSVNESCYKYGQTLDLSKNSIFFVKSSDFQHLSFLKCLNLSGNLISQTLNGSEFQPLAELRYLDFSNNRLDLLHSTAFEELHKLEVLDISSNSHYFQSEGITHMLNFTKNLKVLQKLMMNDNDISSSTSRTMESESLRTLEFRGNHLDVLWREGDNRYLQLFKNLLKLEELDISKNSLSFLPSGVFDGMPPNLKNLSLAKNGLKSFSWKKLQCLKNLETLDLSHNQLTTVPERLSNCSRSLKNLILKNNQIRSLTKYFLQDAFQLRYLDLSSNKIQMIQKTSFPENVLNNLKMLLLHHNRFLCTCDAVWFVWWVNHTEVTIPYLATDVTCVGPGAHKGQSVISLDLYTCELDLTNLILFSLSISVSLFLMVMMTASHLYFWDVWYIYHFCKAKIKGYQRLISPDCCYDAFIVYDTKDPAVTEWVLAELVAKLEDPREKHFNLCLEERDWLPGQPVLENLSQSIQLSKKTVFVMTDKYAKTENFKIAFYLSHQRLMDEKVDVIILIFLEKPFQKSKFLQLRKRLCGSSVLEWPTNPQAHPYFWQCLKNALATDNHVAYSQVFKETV
# Experimental: This procedure describes a method for assaying human TLR7 (hTLR7) agonist activity of the compounds disclosed in this specification.
# HEK-Blue™ TLR7 cells were added to each well of a 384-well tissue-culture plate (15,000 cells per well) and incubated 16-18 h at 37° C., 5% CO2. Compounds (100 nl) were dispensed into wells containing the HEK-Blue™ TLR cells and the treated cells were incubated at 37° C., 5% CO2. After 18 h treatment ten microliters of freshly-prepared Quanti-Blue™ reagent (Invivogen) was added to each well, incubated for 30 min (37° C., 5% CO2) and SEAP levels measured using an Envision plate reader (OD=620 nm). The half maximal effective concentration values (EC50; compound concentration which induced a response halfway between the assay baseline and maximum) were calculated.
# CD69 = experiment: Induction of CD69 in human whole blood; assay type: cell-based; conditions: 17 h, CD69 surface staining, 100% set to 1 uM resiquimod, average where assay repeated, Table A1, read-out: hWB CD69 EC50
# Experimental: The induction of Type I interferon (IFN) MX-1 genes and the B-cell activation marker CD69 are downstream events that occur upon activation of the TLR7 pathway. The following is a human whole blood assay that measures their induction in response to a TLR7 agonist.
# Heparinized human whole blood was harvested from human subjects and treated with test TLR7 agonist compounds at 1 mM. The blood was diluted with RPMI 1640 media and Echo was used to predot 10 nL per well giving a final concentration of 1 uM (10 nL in 10 uL of blood). After mixing on a shaker for 30 sec, the plates were covered and placed in a 37° C. chamber for o/n=17 hrs. Fixing/lysis buffer was prepared (5×->1× in H2O, warm at 37° C.; Cat #BD 558049) and kept the perm buffer (on ice) for later use.
# For surface markers staining (CD69): prepared surface Abs: 0.045 ul hCD14-FITC (ThermoFisher Cat #MHCD1401)+0.6 ul hCD19-ef450 (ThermoFisher Cat #48-0198-42)+1.5 ul hCD69-PE (cat #BD555531)+0.855 ul FACS buffer. Added 3 ul/well, spin1000 rpm for 1 min and mixed on shaker for 30 sec, put on ice for 30 mins. Stop stimulation after 30 minutes with 70 uL of prewarmed 1× fix/lysis buffer and use Feliex mate to resuspend (15 times, change tips for each plate) and incubate at 37C for 10 minutes.
# Centrifuge at 2000 rpm for 5 minutes aspirate with HCS plate washer, mix on shaker for 30 sec and then wash with 70 uL in dPBS and pelleted 2×s (2000 rpm for 5 min) and 50 ul wash in FACS buffer pelleted 1×s(2000 rpm for 5 min). Mix on shaker for 30 sec. For Intracellular markers staining (MX-1): Add 50 ul of BD Perm buffer III and mix on shaker for 30 sec. Incubate on ice for 30 minutes (in the dark). Wash with 50 uL of FACS buffer 2× (spin @2300 rpm×5 min after perm) followed by mixing on shaker for 30 sec. Resuspended in 20 ul of FACS buffer containing MX1 antibody ( ) (4812)-Alexa 647: Novus Biologicals #NBP2-43704AF647) 20 ul FACS bf+0.8 ul hlgG+0.04 ul MX-1. Spin 1000 rpm for 1 min, mix on shaker for 30se and the samples were incubated at RT in the dark for 45 minutes followed by washing 2×FACS buffer (spin @2300 rpm×5 min after perm). Resuspend 20 ul (35 uL total per well) of FACS buffer and cover with foil and place in 4° C. to read the following day. Plates were read on iQuePlus. The results were loaded into toolset and IC50 curves are generated in curve master. The y-axis 100% is set to 1 uM of resiquimod.
Compound,EC50 (human TLR7) [nM],EC50 (CD69) [nM]
"4-[3-({5-amino-7-[({spiro- [2.3]hexan-5-yl}methyl)- amino]-1H-pyrazolo[4,3- d]pyrimidin-1-yl}methyl)-4- methoxybenzoyl]piperazin- 2-one [Compound 153]",2250,485
"CCCCNc1nc(N)nc2cnn(Cc3cc(CN)ccc3OC)c12 [Compound 114, 1-{[5-(aminomethyl)-2-methoxyphenyl]methyl}-N7-butyl-1H-pyrazolo[4,3-d]pyrimidine-5,7-diamine]",234,6.7
"CCCCNc1nc(N)nc2cnn(Cc3cc(CNC4CC(O)C4)ccc3OC)c12 (stereo not shown) [Compound 116, (1r,3r)-3-{[(3-{[5-amino-7-(butylamino)-1H-pyrazolo-[4,3-d]pyrimidin-1-yl]methyl}-4-methoxyphenyl)-methyl]amino}cyclobutan-1-ol]",335,205
"CCCCNc1nc(N)nc2cnn(Cc3cc(CNC4CC45CC5)ccc3OC)c12 (stereo not shown) [Compound 117, N7-butyl-1-({2-methoxy-5-[({spiro[2.2]pentan-1-yl}amino)methyl]phenyl}methyl)-1H-pyrazolo[4,3-d]pyrimidine-5,7-diamine]",562,156
"CCCCNc1nc(N)nc2cnn(Cc3cc(CN4CC5CC4CN5)ccc3OC)c12 (stereo not shown) [Compound 118, N7-butyl-1-{[5-({2,5-diaza-bicyclo[2.2.1]heptan-2-yl}methyl)-2-methoxy-phenyl]methyl}-1H-pyrazolo[4,3-d]pyrimidine-5,7-diamine]",423,335
"CCCCNc1nc(N)nc2cnn(Cc3cc(CNC4(C)CCOCC4)ccc3OC)c12 [Compound 119, N7-butyl-1-[(2-methoxy-5-{[(4-methyloxan-4-yl)amino]methyl}phenyl)methyl]-1H-pyrazolo[4,3-d]pyrimidine-5,7-diamine]",529,227
CCCCNc1nc(N)nc2cnn(Cc3cc(CNC4CCCC4)ccc3OC)c12 [Compound 120],548,288
"CCCCNc1nc(N)nc2cnn(Cc3cc(CNC4COC4)ccc3OC)c12 [Compound 122, N7-butyl-1-[(2-methoxy-5-{[(oxetan-3-yl)amino]-methyl}phenyl)methyl]-1H-pyrazolo[4,3-d]pyrimidine-5,7-diamine]",548,225
"CCCCNc1nc(N)nc2cnn(Cc3cc(CNCC4(N)CCC4)ccc3OC)c12 [Compound 129, 1-{[5-({[(1-aminocyclo-butyl)methyl]amino}methyl)-2-methoxyphenyl]methyl}-N7-butyl-1H-pyrazolo[4,3-d]pyrimidine-5,7-diamine]",587,60.9

# Compounds with a lower EC50 (human TLR7), results first:
EC50 (human TLR7) [nM],EC50 (CD69) [nM],Compound
124,90.9,"CCCCNc1nc(N)nc2cnn(Cc3cc(CN4CC(OC)C4)ccc3OC)c12 [Compound 105, N7-butyl-1-({2-methoxy-5-[(3-methoxyazetidin-1-yl)methyl]phenyl}methyl)-1H-pyrazolo[4,3-d]pyrimidine-5,7-diamine]"
116,56.9,CCCCNc1nc(N)nc2cnn(Cc3cc(CNC4CC4)ccc3OC)c12 [Compound 121]
158,89.8,"CCCCNc1nc(N)nc2cnn(Cc3cc(CN4CC5COCC5C4)ccc3OC)c12 (stereo not shown) [Compound 123, N7-butyl-1-{[5-({hexa-hydro-1H-furo[3,4-c]pyrrol-5-yl}methyl)-2-methoxyphenyl]methyl}-1H-pyrazolo[4,3-d] pyrimidine-5,7-diamine]"
190,86.3,"CCCCNc1nc(N)nc2cnn(Cc3cc(CN4CC5(COC5)C4)ccc3OC)c12 [Compound 124, N7-butyl-1-{[2-methoxy-5-({2-oxa-6-azaspiro-[3.3]heptan-6-yl}-methyl)phenyl]methyl}-1H-pyrazolo[4,3-d]pyrimidine-5,7-diamine]"
191,369,"CCCCNc1nc(N)nc2cnn(Cc3cc(CN4CC5(C4)CN(C(=O)C4CCC4)C5)ccc3OC)c12 [Compound 125, N7-butyl-1-{[5-({6-cyclobutanecarbonyl-2,6-diazaspiro[3.3]heptan-2-yl}methyl)-2-methoxy-phenyl]methyl}-1H-pyrazolo[4,3-d]pyrimidine-5,7-diamine]"
158,98.9,"CCCCNc1nc(N)nc2cnn(Cc3cc(CN(C)CCNC)ccc3OC)c12 [Compound 126, N7-butyl-1-{[2-methoxy-5-({methyl[2-(methylamino)-ethyl]amino}methyl)phenyl]methyl}-1H-pyrazolo[4,3-d]pyrimidine-5,7-diamine]"
107,47.5,"CCCCNc1nc(N)nc2cnn(Cc3cc(CN4CCN(CCO)CC4)ccc3OC)c12 [Compound 127, 2-{4-[(3-{[5-amino-7-(butylamino)-1H-- pyrazolo[4,3-d]pyrimidin-1-yl]methyl}-4-methoxy-phenyl)methyl]piperazin-1-yl}ethan-1-ol]"
56.2,12.6,"CCCCNc1nc(N)nc2cnn(Cc3cc(CN(C)C(=O)CCN(C)C)ccc3OC)c12 [Compound 128, N-[(3-{[5-amino-7-(butyl-amino)-1H-pyrazolo[4,3-d]pyrimidin-1-yl]methyl}-4-methoxyphenyl)methyl]-3-(dimethylamino)-N-methylpropanamide]"
49.9,516,"CCCCNc1nc(N)nc2cnn(Cc3cc(CN4CCN(C5CCC5)CC4)ccc3OC)c12 [Compound 130, N7-butyl-1-({5-[(4-cyclobutylpiperazin-1-yl)methyl]-2-methoxy-phenyl}methyl)-1H-pyrazolo[4,3-d]pyrimidine-5,7-diamine]"
112,85.9,"CCCCNc1nc(N)nc2cnn(Cc3cc(CN4CCCN(C)CC4)ccc3OC)c12 [Compound 131, N7-butyl-1-({2-methoxy-5-[(4-methyl-1,4-diazepan-1-yl)methyl]phenyl}methyl)-1H-pyrazolo[4,3-d] pyrimidine-5,7-diamine]"
187,10.9,"CCCCNc1nc(N)nc2cnn(Cc3cc(CNC)ccc3OC)c12 [Compound 132, N7-butyl-1-(2-methoxy-5-((methylamino)methyl)benzyl)-1H-pyrazolo[4,3-d]pyrimidine-5,7-diamine]"
